Tests used:
[1] = assay type: physicochemical
Experimental: A solution of rebaudioside A (>97% pure by HPLC) was prepared in double distilled water (12.5 gm in 50 mL, 25% concentration) by stirring the mixture at 40° C. for 5 minutes. An amorphous form of rebaudioside A was formed by immediately using the clear solution for spray drying with the Lab-Plant spray drier SD-04 instrument (Lab-Plant Ltd., West Yorkshire, U.K.). The solution was fed through the feed pump into the nozzle atomizer which atomized it into a spray of droplets with the help of a constant flow of nitrogen/air. […] This dry powder (11-12 g, H2O 6.74%) was discharged continuously from the drying chamber and was collected in a bottle.

[2] = Rate of dissolution of rebaudioside A polymorphs in H2O; assay type: physicochemical
[3] = system: panel of experts in the sensory evaluation of foods and beverages; assay: Sensory evaluation of sweetness linger by expert panel; assay type: in vivo; parameters: key: 0: no sweetness linger; 1: very slight sweetness linger; 2: slight sweetness linger; 3: moderate sweetness linger; 4: moderately high sweetness linger; 5: high sweetness linger; conditions: for sweetness linger: scale 0-5; for Sweetness Linger rating (defined for controls): ratings defined for the protocol, REBA control sample 500 ppm
Experimental: Sensory evaluation of the samples prepared in Example Set G was carried out under the following protocol, similar to that described hereinabove. In this test protocol, none of the samples were swallowed. All samples were expectorated and the mouth was rinsed with water after the tasting. Immediately upon sensing maximal sweetness, the sample was expectorated, the mouth was rinsed with water and the rate of sweetness decay (“Sweetness Linger”) was measured, where attention was focused on the sweetness 3-4 min after the water rinse. After sample tasting was complete, a salty oyster cracker was chewed followed by a water rinse, and at least 5 minutes followed before tasting the next sample. The sweetness linger was rated by a panel of experts in the sensory evaluation of foods and beverages using the following scale: 0=no sweetness linger, 1 =very slight sweetness linger, 2 slight sweetness linger, 3=moderate sweetness linger, 4 =moderately high sweetness linger, 5 high sweetness linger.
The “Sweetness Linger” rating for sucrose observed by this protocol is defined as 0. The Sweetness Linger of a 500 ppm of REBA control sample is defined as 5. Experimental samples were tasted by the same protocol, always allowing sufficient time between samples to ensure re-equilibration of the sensory system. Re-tasting of control samples during the course of the experiment was allowed and encouraged.
The comparison taste test was performed between two controls and addition of sweet taste improving additive on the onset and/or sweetness linger.
Sweet taste improving compositions were combined with a REBA solution to determine their effect on sweetness linger. Screening of the initial sample, or further dilutions, allowed identification of concentrations which were just above-threshold, herein defined as “near-threshold concentrations.” The near-threshold additive concentrations, a 6- to 100-fold higher additive concentration (depending on the off-taste intensity), and a mid-level additive concentration (halfway between the near-threshold and higher additive concentration) were evaluated to determine the effect on sweetness linger of a REBA solution. […]
Sensory evaluation using the protocol described in Example Set G then was used to evaluate the sweetness linger of the REBA solutions.

Compound: rebaudioside A [F]
- solubility in water at room temperature [1]: > 35.0%

Compound: rebaudioside A [Form 1]
- Rate of dissolution in H2O at 25° C. [2]: Very low (<0.2%/ %/60 minutes

Compound: rebaudioside A
- sweetness linger ([3]; Example Set G: 400 ppm REBA in citric acid/potassium citrate composition equivalent to that in a diet lemon-lime beverage, sweetness 3-4 min after water rinse): 5
- sweetness linger ([3]; Example Set H: 500 ppm REBA (H41: 360 ppm) in carbon-treated water, phosphoric acid (75%) to pH 2.4-2.5): 5
- Sweetness Linger rating (defined for controls) [3]: 5

Compound: OC[C@H]1O[C@@](CO)(O[C@H]2O[C@H](CO)[C@@H](O)[C@H](O)[C@H]2O)[C@@H](O)[C@@H]1O [sugar, sucrose, reference compound]
- Sweetness Linger rating (defined for controls) [3]: 0

From patent publication US20070116833A1, “High-Potency Sweetener Composition with Calcium and Compositions Sweetened Therewith” (THE COCA-COLA COMPANY, priority 2005, published 2007)
